Counter-ions that a name gives are not always drawn.
What was measured:
[1] = tested on: mice; test: toxicity by intravenous injection to mice; format: in vivo; conditions: dose of 100 mg/kg
Description: Further, toxicity of a hydrochloride of substance SF2698 was examined by administering to mice the test compound by intravenous injection.

[2] = tested on: Cryptococcus neoformans M9010; test: MIC (minimum growth inhibitory concentration) on test microorganisms; format: cell-based
Description: (§1) Minimum growth inhibitory concentrations (MIC) of a hydrochloride of substance SF 2698 on various test microorganisms are shown in Table 1 below.

[3] = tested on: Candida utilis M9007; test: as above; format: cell-based; conditions: Williopsis jadinii
Description: as §1

[4] = tested on: Candida glabrata IFO-0622; test: as above; format: cell-based; conditions: Nakaseomyces glabratus, IFO0622
Description: as §1

[5] = tested on: Candida glabrata IFO-0005; test: as above; format: cell-based; conditions: Nakaseomyces glabratus, IFO0005
Description: as §1

[6] = tested on: Candida albicans M9001; test: as above; format: cell-based
Description: as §1

[7] = Solubility; format: physicochemical
[8] = tested on: eumycetes; test: antimicrobial activity (Table 1, summary); format: cell-based; conditions: against certain kinds of eumycetes, from Table 1
Description: as §1

For N=C1C=CCC(C(=O)O)N1 (stereo not shown) [hydrochloride of substance SF 2698], the case of death [1] was “no case of death”, the MIC [2] was over 100 µg/mL and the MIC [3] was 12.5 µg/mL. It also gave an MIC [4] of 0.78 µg/mL, an MIC [5] of 0.2 µg/mL and an MIC [6] of over 100 µg/mL. For the same compound, the Solubility ([7]; in methanol) was “soluble”, the Solubility ([7]; in organic solvents, e.g., ethyl acetate) was “insoluble” and the Solubility ([7]; in water) was “soluble”. The antimicrobial activity [8] was “exhibits antimicrobial activity against certain kinds of eumycetes”.
